From article PMC9742639, “Inhibition of glycogen synthase kinase-3-beta (GSK3β) blocks nucleocapsid phosphorylation and SARS-CoV-2 replication” (Molecular Biomedicine, 2022)
Where “and” joins values, the source holds several entries; their conditions need not be identical. Equal values may be shown once. Read-outs that look alike come from different tables or passages of the source. Square brackets hold non-standard residues; d marks the D form. Primed or numbered codes have the meaning given here. Ends that are not written are not given here. pS′ = not defined here; pT′ = not defined here

Experiments:
Huh-7.5.1 cells = assay: Cell loss / toxicity to Huh-7.5.1 host cells (nuclei count); conditions: 10 µM, infected Huh-7.5.1 cells
Procedure: (§1) Total number of cells (via nuclei staining) and number of virus-infected cells (via dsRNA and nucleocapsid staining) was measured using the CellInsight CX5 High Content Screening platform (Thermo Fisher), as previously described [24]. Briefly, cell nuclei are stained with Hoechst (33342) for detection at the 350/461 nm wavelength and a region of interest (ROI) marks each cell, which is verified using cell membrane imaging in the bright field. The ROI includes the areas where dsRNA (485/521 nm wavelength) and SARS-CoV-2 nucleocapsid (533/588 nm wavelength) are localized. The software (HCS Studio Cell Analysis Software, version 4.0) tallies ROIs where dsRNA and nucleocapsid are located within stained nuclei by compiling pixel area and intensity measurements. The fluorescence emitted by the dsRNA and nucleocapsid are then quantified for each well. The total intensity of each well indicates the viral load and is normalized against non-infected cells and untreated infected cells. Cell loss (from cytotoxicity or poor adherence) was quantified using the same stain (Hoechst 33342) and was used to normalize the changes in viral load resulting from a decrease in cell numbers. Based on average variation in control treatments between experiments, significant cell loss was considered a loss of > 20% cells relative to the non-infected control.

HCoV-229E [1] = assay: High-content screen / dose-response of HCoV-229E-infected Huh-7.5.1 cells (dsRNA); format: cell-based
in vitro = conditions: human
Procedure: as §1

SARS-CoV-2 [2] = assay: High-content screen / dose-response of SARS-CoV-2-infected Huh-7.5.1 cells (dsRNA, nucleocapsid); format: cell-based; conditions: for ED50, activity against SARS-CoV-2 / inhibition at 10 µM: Huh-7.5.1 cells; for ED50, activity against SARS-CoV-2: intracellular N protein; for inhibition at 10 µM: Severe acute respiratory syndrome coronavirus 2
PKCa = biological target: T1, PKCa (Homo sapiens, UniProt P17252); assay: In vitro phosphorylation of nucleocapsid peptides, ADP-Glo; format: biochemical; conditions: for Phosphorylation by PKCa (Table 2): Mean ± Standard deviation, n = 3, no peptide substrate 1282 ± 51; for Relative phosphorylation by PKCa: kinase with ATP alone, no peptide = 100, peptide ~250 μM, ATP 250 μM, 30 min
T1 construct: GST; purchased SignalChem P61-18G

PKACa = PKACa (Homo sapiens, UniProt P17612); assay: as above; format: biochemical; conditions: kinase with ATP alone, no peptide = 100; peptide ~250 μM, ATP 250 μM, 30 min
GSK3b = biological target: T2, GSK3b (Homo sapiens, UniProt P49841); assay: as above; format: biochemical; conditions: for Phosphorylation by GSK3b (Table 2): Mean ± Standard deviation, n = 3, no peptide substrate 1995 ± 133; for Relative phosphorylation by GSK3b: kinase with ATP alone, no peptide = 100, peptide ~250 μM, ATP 250 μM, 30 min
T2 construct: GST; purchased SignalChem G09-10G

CK1d = biological target: T3, CK1d (Homo sapiens, UniProt P48730); assay: as above; format: biochemical; conditions: kinase with ATP alone, no peptide = 100; peptide ~250 μM, ATP 250 μM, 30 min
T3 construct: GST; purchased SignalChem C65-10G

CDK2 + Cyclin A2 = CDK2 + Cyclin A2 (Homo sapiens, UniProt P24941); assay: as above; format: biochemical; conditions: kinase with ATP alone, no peptide = 100; peptide ~250 μM, ATP 250 μM, 30 min
CK1g1 = biological target: T4, CK1g1 (Homo sapiens, UniProt Q9HCP0); assay: as above; format: biochemical; conditions: kinase with ATP alone, no peptide = 100; peptide ~250 μM, ATP 250 μM, 30 min
T4 construct: GST; purchased SignalChem C68-11G

ERK1 = biological target: T5, ERK1 (Homo sapiens, UniProt P27361); assay: as above; format: biochemical; conditions: kinase with ATP alone, no peptide = 100; peptide ~250 μM, ATP 250 μM, 30 min
T5 construct: GST; purchased SignalChem M29-10G

CK1a1 = biological target: T6, CK1a1 (Homo sapiens, UniProt P48729); assay: as above; format: biochemical; conditions: kinase with ATP alone, no peptide = 100; peptide ~250 μM, ATP 250 μM, 30 min
T6 construct: GST; purchased SignalChem C64-10G

CK2a1 = biological target: T7, CK2a1 (Homo sapiens, UniProt P68400); assay: as above; format: biochemical; conditions: kinase with ATP alone, no peptide = 100; peptide ~250 μM, ATP 250 μM, 30 min
T7 construct: GST; purchased SignalChem C70-10G

HCoV-229E [3] = assay: Chou-Talalay synergy with Remdesivir in HCoV-229E-infected cells; format: cell-based; conditions: Chou-Talalay method, CI < 1 synergistic
Procedure: Statistical analyses were performed and figures were prepared using GraphPad Prism 9™ (GraphPad Software, Inc.). Imbedded blots and fluorescent images were generated using GIMP^©. Chou-Talalay synergy analysis was performed using CompuSyn (ComboSyn Inc.). CI values < 1 are defined as synergistic, CI = 1 as additive, and CI > 1 as antagonistic.
Supplemental Figure S4: Synergy experiment. Dose-response combination of Remdesivir (Rem) and T-1686568 (T2) using CompuSyn V1.0. Representative experiment of two independent experiments.

SARS-CoV-2 [4] = assay: Viral titer from 48-h SARS-CoV-2-infected Calu-3 cells; format: cell-based; conditions: 48 h after infection and treatment, 100 μM
SARS-CoV-2 [5] = assay: SARS-CoV-2 infection of primary donor-derived colon organoids (intracellular N protein); format: cell-based; conditions: donor intestinal organoids monolayer, 72 hrs post-infection
GSK3β = biological target: T8, GSK3β (Homo sapiens, UniProt P49841); assay: In vitro inhibition of GSK3β, ADP-Glo Kinase Assay; format: biochemical; conditions: read-out: IC50, GSK3β enzymatic activity
T8 construct: GST; purchased SignalChem G09-10G
Procedure: All protein kinase reactions were performed with the ADP-Glo Kinase Assay from ProMega (Madison, WI, USA). Substrate peptides were assayed at a final concentration of ~ 250 μM with 250 μM ATP for 30 min at 30 °C in a final volume of 25 μL. Recombinant nucleocapsid was similarly assayed at a final concentration of 13.4 ng/μL. The concentrations of recombinant protein kinases used were ~ 2 ng/μL.
Supplemental Figure S3: in vitro inhibition of GSK3. ADP-Glo^TM Kinase Assay normalized to the negative control (100% kinase activity), dose-response was analyzed by non-linear regression.

SARS-CoV-2 [6] = format: cell-based
[7] = average of screens 1 and 2, read-out: Average SARS-CoV-2 Nucleocapsid inhibition
[8] = screen 1, read-out: SARS-CoV-2 inhibition (% Nucleocapsid) 1
[9] = screen 2, read-out: SARS-CoV-2 inhibition (% Nucleocapsid) 2
[10] = read-out: SARS-CoV-2 inhibition (% dsRNA)

T2 sequence (P49841 whole entry): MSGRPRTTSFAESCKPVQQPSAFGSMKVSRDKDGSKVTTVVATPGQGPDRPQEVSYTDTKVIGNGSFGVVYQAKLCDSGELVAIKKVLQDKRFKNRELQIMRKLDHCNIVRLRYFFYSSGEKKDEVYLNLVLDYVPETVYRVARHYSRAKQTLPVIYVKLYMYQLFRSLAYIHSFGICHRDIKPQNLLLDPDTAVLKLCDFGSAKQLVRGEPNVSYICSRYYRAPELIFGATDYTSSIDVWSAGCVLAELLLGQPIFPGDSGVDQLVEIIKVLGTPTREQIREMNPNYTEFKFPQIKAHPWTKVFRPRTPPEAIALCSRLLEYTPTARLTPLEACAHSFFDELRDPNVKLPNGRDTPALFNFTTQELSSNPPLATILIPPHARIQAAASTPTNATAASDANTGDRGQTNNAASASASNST
T3 sequence (P48730 whole entry): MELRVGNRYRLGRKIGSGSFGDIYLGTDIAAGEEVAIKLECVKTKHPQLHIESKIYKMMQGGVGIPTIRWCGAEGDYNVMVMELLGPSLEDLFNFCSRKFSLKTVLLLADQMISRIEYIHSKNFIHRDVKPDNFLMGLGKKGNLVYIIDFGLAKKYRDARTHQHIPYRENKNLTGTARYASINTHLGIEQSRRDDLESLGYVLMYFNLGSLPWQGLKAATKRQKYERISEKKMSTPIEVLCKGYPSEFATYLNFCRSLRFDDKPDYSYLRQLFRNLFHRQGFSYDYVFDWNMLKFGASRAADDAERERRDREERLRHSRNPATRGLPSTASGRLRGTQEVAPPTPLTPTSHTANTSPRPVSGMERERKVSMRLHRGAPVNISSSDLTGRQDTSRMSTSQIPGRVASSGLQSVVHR
T5 sequence (P27361 whole entry): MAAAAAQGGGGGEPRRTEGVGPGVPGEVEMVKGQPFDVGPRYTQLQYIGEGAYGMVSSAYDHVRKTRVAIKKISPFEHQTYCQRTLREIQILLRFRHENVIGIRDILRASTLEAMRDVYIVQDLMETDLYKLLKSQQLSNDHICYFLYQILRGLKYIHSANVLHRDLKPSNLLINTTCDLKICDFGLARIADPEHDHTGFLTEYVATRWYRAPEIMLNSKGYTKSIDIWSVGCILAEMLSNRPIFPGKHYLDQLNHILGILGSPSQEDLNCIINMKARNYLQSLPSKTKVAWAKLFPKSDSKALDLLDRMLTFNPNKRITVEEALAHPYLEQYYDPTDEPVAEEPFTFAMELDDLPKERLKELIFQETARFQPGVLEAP
T7 sequence (P68400 whole entry): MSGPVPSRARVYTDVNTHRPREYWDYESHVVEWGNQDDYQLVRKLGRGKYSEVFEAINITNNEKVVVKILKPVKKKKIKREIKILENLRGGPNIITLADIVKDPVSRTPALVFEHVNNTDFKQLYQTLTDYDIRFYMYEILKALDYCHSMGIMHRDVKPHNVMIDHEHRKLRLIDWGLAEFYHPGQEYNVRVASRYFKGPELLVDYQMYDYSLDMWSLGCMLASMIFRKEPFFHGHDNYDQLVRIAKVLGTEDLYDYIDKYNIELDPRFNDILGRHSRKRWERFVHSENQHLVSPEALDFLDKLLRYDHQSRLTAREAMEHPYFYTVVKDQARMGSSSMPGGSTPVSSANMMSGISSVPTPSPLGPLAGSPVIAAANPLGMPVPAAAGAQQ
T8 sequence (P49841 whole entry): as the sequence (P49841 whole entry) above
T6 sequence (P48729 whole entry): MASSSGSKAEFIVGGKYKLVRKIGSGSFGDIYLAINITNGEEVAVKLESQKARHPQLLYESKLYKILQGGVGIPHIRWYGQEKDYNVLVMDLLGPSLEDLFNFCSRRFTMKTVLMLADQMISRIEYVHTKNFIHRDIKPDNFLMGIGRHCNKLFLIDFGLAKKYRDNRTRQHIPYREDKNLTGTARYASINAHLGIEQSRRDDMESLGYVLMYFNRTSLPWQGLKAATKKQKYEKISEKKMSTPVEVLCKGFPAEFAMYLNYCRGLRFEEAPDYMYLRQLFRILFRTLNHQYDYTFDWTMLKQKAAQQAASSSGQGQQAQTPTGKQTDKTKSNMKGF
T4 sequence (Q9HCP0 whole entry): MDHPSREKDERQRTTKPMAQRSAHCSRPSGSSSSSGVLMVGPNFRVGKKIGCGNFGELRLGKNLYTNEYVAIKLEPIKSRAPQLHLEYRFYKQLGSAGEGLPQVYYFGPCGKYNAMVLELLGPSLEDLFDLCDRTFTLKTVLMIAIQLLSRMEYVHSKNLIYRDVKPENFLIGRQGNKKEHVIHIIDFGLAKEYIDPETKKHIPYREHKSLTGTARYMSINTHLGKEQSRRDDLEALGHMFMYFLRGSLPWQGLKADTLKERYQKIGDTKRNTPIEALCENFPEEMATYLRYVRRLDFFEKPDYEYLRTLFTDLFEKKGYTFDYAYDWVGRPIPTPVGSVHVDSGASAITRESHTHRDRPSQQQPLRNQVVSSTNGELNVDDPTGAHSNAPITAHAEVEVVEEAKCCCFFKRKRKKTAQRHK

CSc1ccc(-c2coc3ccc(-c4nnc(N)o4)cc23)cc1Cl [P-9071942]
Average cell loss (%) (Huh-7.5.1 cells): 29.9% | ED50, activity against HCoV-229E (HCoV-229E [1]): ~ 3 μM | CC50 (in vitro): 27 µM | ED50, activity against SARS-CoV-2 (SARS-CoV-2 [2]): ~ 3 μM and 3.3 μM | inhibition at 10 µM (SARS-CoV-2 [2]; [7]): 94.5% | inhibition at 10 µM (SARS-CoV-2 [2]; [8]): 100% | inhibition at 10 µM (SARS-CoV-2 [2]; [9]): 89.1% | inhibition at 10 µM (SARS-CoV-2 [2]; [10]): 100%

RGGSQASSRSS(pS)RS (RGGSQASSRSS[pS′]RS) [SCV2-N [177-190] - pS188, synthetic peptide modeled after SARS-CoV-2 nucleocapsid phosphorylation sites, pre-phosphorylated at S188]
Phosphorylation by PKCa (Table 2) (PKCa): 3861 ± 71 | Relative phosphorylation by PKCa (PKCa): 389 | Relative phosphorylation by PKACa (PKACa): 128 | Phosphorylation by GSK3b (Table 2) (GSK3b): 24,585 ± 645 | Relative phosphorylation by GSK3b (GSK3b): 1209

RNSTPGSSRGT(pS)PAR (RNSTPGSSRGT[pS′]PAR) [SCV2-N [195-209] - pS206, synthetic peptide modeled after SARS-CoV-2 nucleocapsid phosphorylation sites, pre-phosphorylated at S206]
Phosphorylation by PKCa (Table 2) (PKCa): 1531 ± 47 | Relative phosphorylation by CK1d (CK1d): 105 | Relative phosphorylation by CDK2 + Cyclin A2 (CDK2 + Cyclin A2): 100 | Relative phosphorylation by PKACa (PKACa): 205 | Relative phosphorylation by CK1g1 (CK1g1): 105 | Phosphorylation by GSK3b (Table 2) (GSK3b): 24,082 ± 381 | Relative phosphorylation by GSK3b (GSK3b): 1068 | Relative phosphorylation by ERK1 (ERK1): 100

SSRSRNSSRNS(pT)PG (SSRSRNSSRNS[pT′]PG) [SCV2-N [187-200] - pT198, synthetic peptide modeled after SARS-CoV-2 nucleocapsid phosphorylation sites, pre-phosphorylated at T198]
Phosphorylation by PKCa (Table 2) (PKCa): 7032 ± 319 | Relative phosphorylation by PKCa (PKCa): 553 | Relative phosphorylation by CK1d (CK1d): 152 | Relative phosphorylation by CDK2 + Cyclin A2 (CDK2 + Cyclin A2): 101 | Relative phosphorylation by PKACa (PKACa): 157 | Relative phosphorylation by CK1a1 (CK1a1): 250 | Relative phosphorylation by CK2a1 (CK2a1): 102 | Phosphorylation by GSK3b (Table 2) (GSK3b): 23,031 ± 486 | Relative phosphorylation by GSK3b (GSK3b): 1042 | Relative phosphorylation by ERK1 (ERK1): 100

CSc1ccc(-n2cnc3ccc(-c4nnc(CCc5cccc(C#N)c5)o4)cc32)cc1 [P-0717632]
average Combination Index (CI) (HCoV-229E [3]): 0.7 | reduction of viral titres (SARS-CoV-2 [4]): 2 log | Average cell loss (%) (Huh-7.5.1 cells): 24.4% | effect on intracellular N protein levels (SARS-CoV-2 [5]): greatly decrease intracellular N protein levels | ED50, activity against HCoV-229E (HCoV-229E [1]): ~ 3 μM | CC50 (in vitro): > 100 µM | IC50 (GSK3β): 0.102 µM | N protein in remaining infected cells (SARS-CoV-2 [6]): accumulated | S protein expression (SARS-CoV-2 [6]): reduced | ED50, activity against SARS-CoV-2 (SARS-CoV-2 [2]): 2.7 µM | ED50, activity against SARS-CoV-2 (SARS-CoV-2 [2]; listed as T-1686568): ~ 3 μM | inhibition at 10 µM (SARS-CoV-2 [2]; [7]): 79.3% | inhibition at 10 µM (SARS-CoV-2 [2]; [8]): 75.2% | inhibition at 10 µM (SARS-CoV-2 [2]; [9]): 83.3% | inhibition at 10 µM (SARS-CoV-2 [2]; [10]): 68.2% | ED80 (SARS-CoV-2 [2]; infected Huh-7.5.1 cells): 10 µM

SQASSRSSSR(pS)RNS (SQASSRSSSR[pS′]RNS) [SCV2-N [180-193] - pS190, synthetic peptide modeled after SARS-CoV-2 nucleocapsid phosphorylation sites, pre-phosphorylated at S190]
Phosphorylation by PKCa (Table 2) (PKCa): 4161 ± 66 | Relative phosphorylation by PKCa (PKCa): 418 | Relative phosphorylation by PKACa (PKACa): 312 | Relative phosphorylation by CK2a1 (CK2a1): 100 | Phosphorylation by GSK3b (Table 2) (GSK3b): 2957 ± 3 | Relative phosphorylation by GSK3b (GSK3b): 111

C[S+]([O-])c1ccc(-c2coc3ccc(-c4nnc(SCc5cccc(F)c5)o4)cc23)cc1 (stereo not shown) [P-7657632]
Average cell loss (%) (Huh-7.5.1 cells): 25.4% | ED50, activity against HCoV-229E (HCoV-229E [1]): ~ 3 μM | CC50 (in vitro): 39 µM | ED50, activity against SARS-CoV-2 (SARS-CoV-2 [2]): ~ 3 μM and 2.9 μM | inhibition at 10 µM (SARS-CoV-2 [2]; [7]): 93.1% | inhibition at 10 µM (SARS-CoV-2 [2]; [8]): 100% | inhibition at 10 µM (SARS-CoV-2 [2]; [9]): 86.2% | inhibition at 10 µM (SARS-CoV-2 [2]; [10]): 100%
